Laboratory results taken from article PMC4335544 (Critical Care, 2015).

Columns and labels:
[1] = Spontaneous drug degradation in control polypropylene tubes (whole blood); type: in vitro ADME; settings: human whole blood, polypropylene tubes under agitation at 25°C, up to 48 hours; HPLC-UV or immuno-enzymatic method
[2] = 37°C, 4.5 L/minute
Description: Whole ECMO circuits (Maquet®, Orleans, France) comprising a Quadrox® membrane oxygenator, a centrifugal pump, a heat exchanger and PVC tubing were used for ex vivo tests. All components of the circuit were treated with heparin (Bioline coating®, Maquet). Drug-free human whole blood (800 mL) was used to prime the circuit. In order to replicate the in vivo operating conditions, the temperature of the circulating blood was set at 37°C and circuit flow rate at 4.5 L/minute.
During ex vivo ECMO runs, serial post-membrane blood samples were obtained at 30 minutes, 1 hour, 2 hours, 3 hours, 4 hours, 5 hours, 24 hours and 48 hours after drug introduction into the circuit. Until analysis, samples were kept at 4°C and plasma separated and frozen at −20°C. To determine spontaneous drug degradation, blood containing identical concentrations of the drugs studied was kept in polypropylene tubes under agitation at 25°C for the same time before measurements.
Propofol and midazolam concentrations were measured using high performance liquid chromatography with an ultra-violet detector (Waters, Milford, MA, USA).
Changes of mean drug concentrations over time were compared between control and experimental conditions by modeling using a linear mixed effect model. […] Model choice was guided by the lowest Akaike criteria value. The mixed effect model was then fitted with R software version 3.0.2 and the ‘nlme’ library [10].

[3] = cited from earlier work
Description: Vancomycin, which is the drug of choice for treating beta-lactam resistant Gram-positive bacteria, is frequently prescribed to ECMO patients.

[4] = Description: To further explore the role of temperature, oxygen exposure and PVC surfaces on propofol loss in the ECMO circuit, the following experiments were conducted. A polypropylene tube containing human whole blood was spiked with the propofol stock solution to obtain a concentration of […]. The effect of the temperature, oxygen exposure and contact with PVC surfaces were assessed by incubating the tube at 37°C, applying oxygen (1 L/minute) for 10 seconds to the preparation and by distributing the preparation into 5-cm PVC tubes, respectively. Polypropylene tubes containing blood and propofol at the same concentration were stored at room temperature and were used as controls. Propofol concentrations were measured at 0 minutes, 5 minutes, 10 minutes, 15 minutes, 20 minutes, 25 minutes, 30 minutes and 45 minutes from each preparation. These experiments were conducted in triplicate.
[5] = octanol/water; ref 13-16 (Drug Bank); cited from earlier work

Compound	concentration over time in control polypropylene tubes [1]	concentration in ECMO circuit, result in words ([2]; during the 48 hours of the protocol, human whole blood, immuno-enzymatic method, n = 3 circuits)	decrease in concentration, used circuit ([3]; circuit which had been running for five days, ref 3 (Dagan et al.)) [%]	decrease in concentration, new circuit ([3]; drug introduced in a new circuit, ref 3 (Dagan et al.)) [%]	levels in ECMO circuit, result in words ([3]; ex vivo models, 24 hours, ref 20 (Mehta et al.), ref 19 (Shekar et al.))	decrease in concentration, neonatal and pediatric circuits ([3]; neonatal and pediatric circuits, ref 6 (Wildschut et al.))	loss of propofol on contact with PVC tubing ([4]; after 45 minutes, human whole blood distributed into 5-cm PVC tubes, propofol 2 μg/L as printed, mean of n = 3) [%]	loss of propofol on oxygen exposure ([4]; after 45 minutes, human whole blood in polypropylene tube, oxygen 1 L/minute for 10 seconds, propofol 2 μg/L as printed, mean of n = 3) [%]	effect of heating to 37°C on propofol concentration ([4]; polypropylene tube with human whole blood at 37°C, up to 45 minutes, n = 3)	baseline concentration lost in ECMO circuit ([2]; 30 minutes after introduction, Maquet circuit, Quadrox oxygenator, PVC tubing, heparin coating, 800 mL human whole blood, propofol 2 μg/mL, HPLC-UV, mean of n = 3 circuits) [%]	initial concentration remaining in ECMO circuit ([2]; after 5 hours, human whole blood, HPLC-UV, mean of n = 3 circuits) [%]	fraction remaining in ECMO circuit ([2]; beyond 24 hours, human whole blood, HPLC-UV, n = 3 circuits)	Partition coefficient (log P) [5]	baseline concentration detected in ECMO circuit ([2]; at 30 minutes, human whole blood, HPLC-UV, mean of n = 3 circuits) [%]	baseline concentration remaining in ECMO circuit ([2]; at 24 hours, human whole blood, midazolam HPLC-UV, cyclosporine immuno-enzymatic method, mean of n = 3 circuits) [%]
Vancomycin	remained stable	remained stable	11	36	remained unchanged	up to 46%	–	–	–	–	–	–	–	–	–
CC(C)c1cccc(C(C)C)c1O [Propofol]	remained stable	–	–	–	–	–	85	70	no effect	70	11	negligible	4.0	–	–
Cc1ncc2n1-c1ccc(Cl)cc1C(c1ccccc1F)=NC2 [Midazolam]	remained stable	–	–	–	–	–	–	–	–	–	–	–	3.9	54	11
